Experimental data published in patent publication US20170234889A1, “hGH Determination for Use to Guide Prevention of a Major Adverse Cardiac Event or a Cardiovascular Disease in a Subject” (Sphingotec GmbH, priority 2014, published 2017).

What was measured:
Assay type in all cases: in vivo, human
[1] = test system: patients with acute myocardial infarction; experiment: AMI cohort: Cox regression and Kaplan-Meier analysis for MACE at 2 years post-AMI
Protocol: We studied 953 STEMI and NSTEMI patients admitted to University Hospitals of Leicester NHS trust between August 2004 and April 2007. This observational cohort study complied with the Declaration of Helsinki and was approved by the local ethics committee; written informed consent was obtained from patients. […] Patients with known malignancy, renal replacement therapy or surgery in the previous month were excluded. Estimated glomerular filtration rate (eGFR) was calculated from the simplified Modification of Diet in Renal Disease formula (Smilde T D, van Veldhuisen D J, Navis G, Voors A A, Hillege H L. Drawbacks and prognostic value of formulas estimating renal function in patients with chronic heart failure and systolic dysfunction. Circulation 2006; 114:1572-80). All patients received standard medical treatment and revascularisation was at the discretion of the attending physician.
Plasma samples: Blood samples (anticoagulated with EDTA and aprotinin) were drawn after 15 minutes bed rest, immediately after diagnosis and within 36 h of symptom onset. Plasma was stored at −80° C. until assayed in a single batch for blinded determination of plasma hGH.
During follow-up over 2 years, there were 281 MACE, the primary composite endpoint (comprising 117 deaths, 71 HF hospitalisations and 93 re-AMIs). […]

[2] = test system: subjects with plaque in the right carotid artery but no symptoms of carotid artery disease; experiment: BCAPS: carotid ultrasound intima media thickness (IMT); conditions: 36 months; for IMTbulb, median: maximum IMT at the carotid bifurcation; for IMTcca, median: mean IMT in the common carotid artery
Text: The β-Blocker Cholesterol-Lowering Asymptomatic Plaque Study (BCAPS) was a randomized, double blind, placebo-controlled, single-center clinical trial that took place between 1994 and 1999. A detailed description of BCAPS can be found in the original paper (Hedblad et al. 2001. Circulation 103: 1721-1726), following here is a brief summary. The original study population consisted of 361 men and 432 women (total n=793) 49 to 70 years of age recruited from MDC-CC. Subjects included in BCAPS had plaque in the right carotid artery but no symptoms of carotid artery disease. Exclusion criteria were: myocardial infarction, angina pectoris or stroke within the previous 3 months; previous surgery in the right carotid artery; regular use of β-blockers or statins; blood pressure >160 (systolic) or >95 (diastolic) mm Hg; total cholesterol >8.0 mmol/l; hyperglycemia suspected to require insulin treatment; and conditions that in the view of the investigator made the participant unsuitable for the trial. The study consisted of 4 different treatment groups and the participants were randomized to 1 of the following: placebo/placebo, metoprolol CR/XL (25 mg once daily)/placebo, fluvastatin (40 mg once daily)/placebo or metoprolol CR/XL (25 mg once daily)/fluvastatin (40 mg once daily). Carotid ultrasound was performed at baseline, 18 and 36 months (Hedblad et al. 2001. Circulation 103: 1721-1726). In brief, a predefined extent of the right carotid bifurcation was scanned for presence of plaques and the maximum IMT at the bifurcation (IMTbulb) and the mean IMT in the common carotid artery ([…]) was measured.

[3] = test system: subjects with plaque in the right carotid artery but no symptoms of carotid artery disease; experiment: BCAPS: fasting plasma hs-GH under treatment; conditions: for Growth Hormone - females, geometric mean / Growth Hormone - males, geometric mean: 12 months of treatment, fasting plasma
Text: The β-Blocker Cholesterol-Lowering Asymptomatic Plaque Study (BCAPS) was a randomized, double blind, placebo-controlled, single-center clinical trial that took place between 1994 and 1999. A detailed description of BCAPS can be found in the original paper (Hedblad et al. 2001. Circulation 103: 1721-1726), following here is a brief summary. The original study population consisted of 361 men and 432 women (total n=793) 49 to 70 years of age recruited from MDC-CC. Subjects included in BCAPS had plaque in the right carotid artery but no symptoms of carotid artery disease. Exclusion criteria were: myocardial infarction, angina pectoris or stroke within the previous 3 months; previous surgery in the right carotid artery; regular use of β-blockers or statins; blood pressure >160 (systolic) or >95 (diastolic) mm Hg; total cholesterol >8.0 mmol/l; hyperglycemia suspected to require insulin treatment; and conditions that in the view of the investigator made the participant unsuitable for the trial. The study consisted of 4 different treatment groups and the participants were randomized to 1 of the following: placebo/placebo, metoprolol CR/XL (25 mg once daily)/placebo, fluvastatin (40 mg once daily)/placebo or metoprolol CR/XL (25 mg once daily)/fluvastatin (40 mg once daily). The treatment period was 36-months. Fasting blood samples were drawn at baseline and at 12, 24 and 36 months. HDL-C, total cholesterol and TG were measured according to standard procedures at the Department of Clinical Chemistry, University Hospital of Malmö. LDL-C levels were calculated according to the Friedewald formula. GH levels were measured in stored fasting plasma samples, which were frozen immediately to −80° C. at the different examinations. A number of the samples stored in the freezer were missing or had insufficient plasma for the analysis of hs-GH. Subjects in which either the baseline-value of GH or the 12-month value of GH was missing were excluded from further analysis. After this adjustment the study consisted of 472 individuals. All samples were measured using the hs-hGH immunoassay as described above. In the analyses where treatment groups are compared, the groups are either the 4 randomization groups or they are divided in to 2 groups which are fluvastatin vs non-fluvastatin (i.e placebo) or metoprolol vs non-metoprolol. Since fasting hs-GH is known to differ between men and women all models were performed separate for men and women as well as combined. All models were adjusted for age, sex (if not already gender separated) and the natural logarithm of the fasting level of hs-GH at baseline. To investigate if fasting hs-GH was affected by treatment with fluvastatin or metoprolol we performed multiple regression analysis with ΔGH (baseline value subtracted from 12 month value) as the dependent variable and the treatment groups as independent variables.

[4] = test system: subjects with plaque in the right carotid artery but no symptoms of carotid artery disease; experiment: BCAPS: LDL-C under treatment; conditions: 12 months of treatment
Text: The β-Blocker Cholesterol-Lowering Asymptomatic Plaque Study (BCAPS) was a randomized, double blind, placebo-controlled, single-center clinical trial that took place between 1994 and 1999. A detailed description of BCAPS can be found in the original paper (Hedblad et al. 2001. Circulation 103: 1721-1726), following here is a brief summary. The original study population consisted of 361 men and 432 women (total n=793) 49 to 70 years of age recruited from MDC-CC. Subjects included in BCAPS had plaque in the right carotid artery but no symptoms of carotid artery disease. […] HDL-C, total cholesterol and TG were measured according to standard procedures at the Department of Clinical Chemistry, University Hospital of Malmö. LDL-C levels were calculated according to the Friedewald formula. GH levels were measured in stored fasting plasma samples, which were frozen immediately to −80° C. at the different examinations. […] All samples were measured using the hs-hGH immunoassay as described above.

[5] = FEMALE, all receiving the drug vs individuals not receiving it
[6] = FEMALE, model All groups, each compared against placebo
[7] = MALE, all receiving the drug vs individuals not receiving it
[8] = MALE, model All groups, each compared against placebo
[9] = gender ALL, all receiving the drug vs individuals not receiving it
[10] = gender ALL, model All groups, each compared against placebo

Row | SMILES | Univariable HR (95% CI) for MACE [1] | IMTbulb, median [2] | IMTcca, median [2] | Growth Hormone - females, geometric mean [3] | Growth Hormone - males, geometric mean [3] | B, multiple linear regression of ΔGH (12 months - baseline) vs treatment group [3, 5] | B, multiple linear regression of ΔGH (12 months - baseline) vs treatment group [3, 6] | B, multiple linear regression of ΔGH (12 months - baseline) vs treatment group [3, 7] | B, multiple linear regression of ΔGH (12 months - baseline) vs treatment group [3, 8] | B, multiple linear regression of ΔGH (12 months - baseline) vs treatment group [3, 9] | B, multiple linear regression of ΔGH (12 months - baseline) vs treatment group [3, 10] | LDL-C, mean [4]
1 | CC(=O)Oc1ccccc1C(=O)O [Aspirin] | 0.54 (0.41-0.72) | – | – | – | – | – | – | – | – | – | – | –
2 | CC(C)n1c(/C=C/C(O)CC(O)CC(=O)O)c(-c2ccc(F)cc2)c2ccccc21 (centres unmarked) [Fluvastatin] | – | 2.02 | 0.87 | 810 pg/mL | 160 pg/mL | 0.41 | 0.02 | −0.37 | −0.36 | 0.12 | −0.11 | 3.27 mmol/L
3 | COCCc1ccc(OCC(O)CNC(C)C)cc1 (centres unmarked) [Metoprolol] | – | 1.89 | 0.90 | 860 pg/mL | 170 pg/mL | 0.33 | −0.06 | −0.27 | −0.26 | 0.13 | −0.11 | 4.17 mmol/L
